# Measured values: publication PMC3933693, “Novel Inhibitors of Mitochondrial sn-Glycerol 3-phosphate Dehydrogenase” (PLoS ONE, 2014)
# Tests used:
# [1] = biological target: T1, flavin site of complex II (site IIF) (Rattus norvegicus, UniProt Q920L2); test: Site-specific H2O2 production from site IIF in skeletal muscle mitochondria; assay type: biochemical; settings: primary screen, ∼2.5 µM, average of duplicates; palmitoylcarnitine
# T1 construct: from tissue; host or cells: skeletal muscle mitochondria
# Method in brief: (§1)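 Isolated rat skeletal muscle mitochondria; H2O2 read by Amplex UltraRed with added SOD and HRP. Site IF/DH: 5 mM glutamate, 5 mM malate, 4 µM rotenone. Site IIF: palmitoylcarnitine or succinate with rotenone/antimycin A/myxothiazol. Site IIIQo: succinate, rotenone, antimycin A. Screen at 2.5 µM, normalised as % change from DMSO.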
# [2] = system: flavin mononucleotide site of complex I (site IF) plus matrix NAD-linked dehydrogenases (site IF/DH); test: Site-specific H2O2 production from site IF/DH in skeletal muscle mitochondria; assay type: biochemical, rat; settings: primary screen, ∼2.5 µM, average of duplicates
# Method in brief: as §1
# [3] = system: skeletal muscle mitochondria; test: Mitochondrial respiration (Seahorse XF24) in plate-attached skeletal muscle mitochondria; assay type: biochemical, rat
# Procedure: The effects of small-molecule inhibitors on respiration were tested in plate-attached skeletal muscle mitochondria using a Seahorse XF24 Analyzer according to published protocols. Briefly, mitochondria (2 or 4 µg protein) were attached to Seahorse assay plates by centrifugation in a mannitol and sucrose-based medium (Seahorse MAS buffer) containing 0.3% (w/v) BSA without or with 250 nM free calcium at pH 7.0. […] Compounds were added in these media just prior to loading the assay plate into the Seahorse instrument. Additions were made to set respiration in basal state 2 (substrate only), phosphorylating state 3 (5 mM ADP), non-phosphorylating state 4o (0.5 ug ⋅ mL^−1 oligomycin), and to reveal the non-mitochondrial rate (2 µM myxothiazol and 2.5 µM antimycin A). Each concentration of compound was tested in at least two wells on each plate. At least three biological replicates of each titration in each substrate condition were performed.
# T1 sequence (Q920L2 35-656): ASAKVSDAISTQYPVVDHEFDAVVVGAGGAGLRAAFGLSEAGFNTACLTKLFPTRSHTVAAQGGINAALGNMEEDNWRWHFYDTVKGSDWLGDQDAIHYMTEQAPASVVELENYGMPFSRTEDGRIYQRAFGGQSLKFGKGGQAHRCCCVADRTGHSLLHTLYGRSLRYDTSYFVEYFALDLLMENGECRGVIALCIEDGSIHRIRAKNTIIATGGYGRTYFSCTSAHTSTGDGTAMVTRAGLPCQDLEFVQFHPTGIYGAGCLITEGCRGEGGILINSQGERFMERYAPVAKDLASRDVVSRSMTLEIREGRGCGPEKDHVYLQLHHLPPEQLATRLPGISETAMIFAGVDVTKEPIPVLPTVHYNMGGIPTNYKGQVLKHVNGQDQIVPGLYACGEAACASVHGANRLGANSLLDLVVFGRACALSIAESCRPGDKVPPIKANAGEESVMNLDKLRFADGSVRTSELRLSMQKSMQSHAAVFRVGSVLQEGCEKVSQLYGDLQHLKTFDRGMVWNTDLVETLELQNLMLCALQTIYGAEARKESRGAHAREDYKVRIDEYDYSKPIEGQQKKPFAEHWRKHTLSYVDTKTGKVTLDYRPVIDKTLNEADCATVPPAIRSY
# T1 sequence (P21913 31-282 partner): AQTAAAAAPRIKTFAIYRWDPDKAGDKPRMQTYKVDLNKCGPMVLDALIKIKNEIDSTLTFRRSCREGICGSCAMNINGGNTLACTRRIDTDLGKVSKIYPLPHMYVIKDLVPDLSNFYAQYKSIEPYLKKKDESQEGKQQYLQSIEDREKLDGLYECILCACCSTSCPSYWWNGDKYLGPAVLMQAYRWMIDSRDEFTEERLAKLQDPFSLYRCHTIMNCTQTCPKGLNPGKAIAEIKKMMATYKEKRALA
# T1 sequence (Q641Z9 30-169 partner limits assumed): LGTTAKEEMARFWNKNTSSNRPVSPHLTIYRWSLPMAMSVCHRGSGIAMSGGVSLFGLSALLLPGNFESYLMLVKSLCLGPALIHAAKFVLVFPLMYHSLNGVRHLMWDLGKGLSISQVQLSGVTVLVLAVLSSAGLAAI
# T1 sequence (Q6PCT8 57-159 partner): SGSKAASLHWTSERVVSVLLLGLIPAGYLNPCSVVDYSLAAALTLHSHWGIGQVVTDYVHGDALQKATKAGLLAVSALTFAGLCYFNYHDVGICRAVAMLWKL
structure (smiles),measurement,setting,value
O=C(O)CCC(=O)Nc1ccc(-c2nc3ccccc3[nH]2)cc1 [iGP-1],IIF (% change from DMSO),[1],3.6%
same,IF/DH (% change from DMSO),[2],4.1%
same,effect on glycerol phosphate-dependent respiration,"[3]; 25 and 80 µM, 16.7 mM glycerol phosphate, rotenone, 250 nM free calcium",significantly decreased
same,effect on respiration on other substrates,"[3]; pyruvate and malate, glutamate and malate, succinate and rotenone",without altering
